From ChEMBL document CHEMBL3228009, “Hypobetalipoproteinemic agents. 2. Compounds related to 4-(1-adamantyloxy)aniline” (J Med Chem, 1979)

Experiments:
Rattus norvegicus [1] = assay: Hypobetalipoproteinemic activity in diet-induced hypercholesteremic rat model assessed as decrease in total serum cholesterol at 50 mg/kg, po relative to control; type: functional
Rattus norvegicus [2] = assay: Hypobetalipoproteinemic activity in diet-induced hypercholesteremic rat model assessed as decrease in heparin precipitating lipoproteins at 50 mg/kg, po relative to control; type: functional
Rattus norvegicus [3] = organism: Rattus norvegicus; assay: Selectivity ratio of T/C for heparin precipitating lipoproteins to T/C for total serum cholesterol in diet-induced hypercholesteremic rat model; type: functional
Rattus norvegicus [4] = assay: Toxicity in diet-induced hypercholesteremic rat model assessed as increase in body weight at 50 mg/kg, po relative to control; type: organism-based; parameters: dose 50 mg/kg, route oral; settings: in vivo
Rattus norvegicus [5] = assay: Toxicity in diet-induced hypercholesteremic rat model assessed as increase in food intake at 50 mg/kg, po relative to control; type: organism-based; parameters: dose 50 mg/kg, route oral; settings: in vivo

SMILES | T/C (Rattus norvegicus [1]) | T/C (Rattus norvegicus [2]) | Selectivity ratio (Rattus norvegicus [3]) | Activity (Rattus norvegicus [4]) [%] | Activity (Rattus norvegicus [5]) [%]
c1cc(N2CCCC2)ccc1OC12CC3CC(CC(C3)C1)C2 | 0.65 | 0.52 | 0.8 | > 63 | > 73
Cc1cc(N)cc(C)c1OC12CC3CC(CC(C3)C1)C2.Cl | 0.86 | 0.8 | 0.93 | > 63 | > 73
CN(CCN1CCCC1)c1ccc(OC23CC4CC(CC(C4)C2)C3)cc1.Cl | 1.26 | 1.22 | 0.97 | > 63 | > 73
O=C(Nc1ccccc1)Nc1ccc(OC23CC4CC(CC(C4)C2)C3)cc1 | 1.18 | 1.23 | 1.05 | > 63 | > 73
Clc1cc(N2CCCC2)ccc1OC12CC3CC(CC(C3)C1)C2 | 1.08 | 1.07 | 0.98 | > 63 | > 73
c1cc(C23CC4CC(CC(C4)C2)C3)ccc1N1CCCC1 | 1.17 | 0.9 | 0.77 | > 63 | > 73
S=C(Nc1ccc(OC23CC4CC(CC(C4)C2)C3)cc1)NC12CC3CC(CC(C3)C1)C2 | 0.88 | 0.91 | 1.03 | > 63 | > 73
Cc1cc(OC23CC4CC(CC(C4)C2)C3)cc(C)c1N | 0.77 | 0.72 | 0.93 | > 63 | > 73
CNc1ccc(CC23CC4CC(CC(C4)C2)C3)cc1.Cl | 0.55 | 0.45 | 0.82 | > 63 | > 73
C#CCN(C)c1ccc(OC23CC4CC(CC(C4)C2)C3)cc1.Cl | 0.57 | 0.6 | 1.05 | > 63 | > 73
Cl.Nc1ccc(OC23CC4CC(CC(C4)C2)C3)c(Cl)c1 | 0.63 | 0.43 | 0.68 | > 63 | > 73
c1cc(N2CCCCC2)ccc1OC12CC3CC(CC(C3)C1)C2 | 0.44 | 0.25 | 0.58 | > 63 | > 73
CN(CCc1ccccc1)c1ccc(OC23CC4CC(CC(C4)C2)C3)cc1.Cl | 1.09 | 1.07 | 0.98 | > 63 | > 73
CC(=O)Nc1ccc(N(C(C)=O)C23CC4CC(CC(C4)C2)C3)cc1 | 1 | 0.98 | 0.98 | > 63 | > 73
Nc1ccc(OC23CC4CC(CC(C4)C2)C3)cc1F | 0.35 | 0.24 | 0.68 | > 63 | > 73
CN(C)CCCN(C)c1ccc(OC23CC4CC(CC(C4)C2)C3)cc1.Cl | 0.98 | 0.99 | 1.01 | > 63 | > 73
CC(=O)Nc1ccc(OC23CC4CC(CC(C4)C2)C3)c(F)c1 | 1.15 | 1.07 | 0.93 | > 63 | > 73
Nc1ccc(OC23CC4CC(CC(C4)C2)C3)c(F)c1 | 0.57 | 0.52 | 0.92 | > 63 | > 73

SMILES | T/C (Rattus norvegicus [1]) | T/C (Rattus norvegicus [2]) | Selectivity ratio (Rattus norvegicus [3]) | Activity (Rattus norvegicus [4]) [%] | Activity (Rattus norvegicus [5]) [%]
CC1(Oc2ccc(N3CCCC3)cc2)C2CC3CC(C2)CC1C3 (stereo not given) | 1.04 | 1.03 | 0.99 | > 63 | > 73
CC(=O)Nc1ccc(OC23CC4CC(CC(C4)C2)C3)cc1F | 0.62 | 0.35 | 0.55 | > 63 | > 73
Nc1ccc(O)cc1 [4-AMINOPHENOL] | 0.94 | 0.98 | 1.04 | > 63 | > 73
Nc1ccc(SC23CC4CC(CC(C4)C2)C3)cc1 | 0.51 | 0.45 | 0.87 | > 63 | > 73
CN(c1ccc(N2CCCC2)cc1)C12CC3CC(CC(C3)C1)C2 | 0.93 | 1.02 | 1.1 | < 63 | > 73
CN(C)c1ccc(OC23CC4CC(CC(C4)C2)C3)cc1.Cl | 0.46 | 0.34 | 0.73 | > 63 | > 73
CCOC(=O)Nc1ccc(OC23CC4CC(CC(C4)C2)C3)cc1 | 0.57 | 0.42 | 0.74 | > 63 | > 73
CNc1ccc(OC2C3CC4CC(C3)CC2C4)cc1.Cl (stereo not given) | 0.83 | 0.87 | 1.04 | > 63 | > 73
c1cc(N2CCCC2)ccc1SC12CC3CC(CC(C3)C1)C2 | 0.83 | 0.95 | 1.14 | > 63 | > 73
CC1(Oc2ccc(N)cc2)C2CC3CC(C2)CC1C3 (stereo not given) | 0.58 | 0.45 | 0.77 | < 63 | > 73
Cc1cc(OC23CC4CC(CC(C4)C2)C3)cc(C)c1N1CCCC1 | 1.18 | 1.28 | 1.08 | > 63 | > 73
O=CNc1ccc(OC23CC4CC(CC(C4)C2)C3)cc1 | 0.71 | 0.78 | 1.09 | > 63 | > 73
Cl.Nc1ccc(CC23CC4CC(CC(C4)C2)C3)cc1 | 0.45 | 0.23 | 0.5 | > 63 | > 73
Cl.Nc1ccccc1CC12CC3CC(CC(C3)C1)C2 | 0.86 | 0.89 | 1.03 | > 63 | > 73
c1cc(N2CCCC2)ccc1OC1C2CC3CC(C2)CC1C3 (stereo not given) | 1.07 | 1.07 | 1.01 | > 63 | > 73
Cc1cc(N2CCCC2)cc(C)c1OC12CC3CC(CC(C3)C1)C2 | 0.81 | 0.78 | 0.96 | > 63 | > 73
Cc1cc(OC23CC4CC(CC(C4)C2)C3)ccc1N | 0.64 | 0.25 | 0.38 | < 63 | < 73
